Assays:
Test in all cases: relative viability (nuclei count vs DMSO), 5 days (fraction); higher = more cells survive
Tosedostat + Dasatinib = compound: CC(C)C[C@@H](C(=O)N[C@H](C(=O)OC1CCCC1)c1ccccc1)[C@H](O)C(=O)NO [Tosedostat] + Cc1nc(Nc2ncc(C(=O)Nc3c(C)cccc3Cl)s2)cc(N2CCN(CCO)CC2)n1 [Dasatinib] (partner 0.075 µM)
Summary of the method: (§1)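 Lung cancer cell lines in 1536-well plates were dosed by pin tool the day after seeding, either with one drug alone or with a fixed anchor-drug dose plus five library-drug doses (not always all listed) in √10 steps. After 5 days, cells were fixed and their nuclei stained in one step (final 0.05% Triton X-100, 1% formaldehyde, 1 ug/ml Hoechst), then counted on 4× images. Relative viability is the nuclei count in treated wells divided by that in vehicle wells. Values are medians of duplicate plates.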

[1] = compound: CC1=NN=C(O1)C2=NN=C(C=C2)N3CCC(CC3)OC4=C(C=CC(=C4)F)Cl + CS(=O)(=O)CCNCc1ccc(-c2ccc3ncnc(Nc4ccc(OCc5cccc(F)c5)c(Cl)c4)c3c2)o1 [Lapatinib] (partner 2 µM)
Summary of the method: as §1

Tosedostat + Pemetrexed = compound: CC(C)C[C@@H](C(=O)N[C@H](C(=O)OC1CCCC1)c1ccccc1)[C@H](O)C(=O)NO [Tosedostat] + Nc1nc2[nH]cc(CCc3ccc(C(=O)N[C@@H](CCC(=O)O)C(=O)O)cc3)c2c(=O)[nH]1 [Pemetrexed] (partner 0.2 µM)
Summary of the method: as §1

Tosedostat + Linsitinib = compound: CC(C)C[C@@H](C(=O)N[C@H](C(=O)OC1CCCC1)c1ccccc1)[C@H](O)C(=O)NO [Tosedostat] + C[C@]1(O)C[C@@H](c2nc(-c3ccc4ccc(-c5ccccc5)nc4c3)c3c(N)nccn32)C1 [Linsitinib] (partner 1 µM)
Summary of the method: as §1

Row | Cell Line | relative viability (Tosedostat + Dasatinib; first compound 0.02 µM) | relative viability (Tosedostat + Dasatinib; first compound 0.06325 µM) | relative viability (Tosedostat + Dasatinib; first compound 0.2 µM) | relative viability (Tosedostat + Dasatinib; first compound 0.6325 µM) | relative viability (Tosedostat + Dasatinib; first compound 2 µM) | relative viability ([1]; first compound 0.253 µM) | relative viability ([1]; first compound 2.53 µM) | relative viability ([1]; first compound 8 µM) | relative viability (Tosedostat + Pemetrexed; first compound 0.02 µM) | relative viability (Tosedostat + Pemetrexed; first compound 0.06325 µM) | relative viability (Tosedostat + Pemetrexed; first compound 0.2 µM) | relative viability (Tosedostat + Pemetrexed; first compound 0.6325 µM) | relative viability (Tosedostat + Pemetrexed; first compound 2 µM) | relative viability (Tosedostat + Linsitinib; first compound 0.02 µM) | relative viability (Tosedostat + Linsitinib; first compound 0.06325 µM) | relative viability (Tosedostat + Linsitinib; first compound 0.2 µM) | relative viability (Tosedostat + Linsitinib; first compound 0.6325 µM) | relative viability (Tosedostat + Linsitinib; first compound 2 µM) | relative viability ([1]; first compound 0.8 µM)
1 | HOP-62 | 0.678 | 0.628 | 0.665 | 0.685 | 0.57 | 0.799 | 0.523 | 0.684 | 0.34 | 0.328 | 0.38 | 0.431 | 0.472 | 1.07 | 0.977 | 0.849 | 0.693 | 0.712 | –
2 | LU99A | 0.517 | 0.495 | 0.506 | 0.424 | 0.413 | 1.02 | 0.978 | 0.816 | 0.172 | 0.165 | 0.195 | 0.212 | 0.191 | 0.508 | 0.555 | 0.528 | 0.561 | 0.504 | 0.952
3 | NCI-H3122 | 0.745 | 0.912 | 0.925 | 0.915 | 0.711 | 0.519 | 0.52 | 0.449 | 0.206 | 0.213 | 0.21 | 0.312 | 0.325 | 0.993 | 1 | 1.01 | 1.02 | 1.04 | 0.675
4 | NCI-H1651 | 0.566 | 0.384 | 0.411 | 0.399 | 0.338 | 0.695 | 0.691 | 0.708 | 0.586 | 0.637 | 0.555 | 0.711 | 0.623 | 0.996 | 0.963 | 1.11 | 0.875 | 0.863 | 0.784
5 | NCI-H661 | 1.02 | 0.834 | 0.846 | 0.815 | 0.695 | 0.541 | 0.542 | 0.417 | 0.959 | 0.9 | 0.97 | 0.984 | 0.994 | 0.552 | 0.592 | 0.555 | 0.494 | 0.495 | 0.477
6 | NCI-H1755 | 0.436 | 0.403 | 0.444 | 0.42 | 0.361 | 0.59 | 0.665 | 0.592 | 0.521 | 0.43 | 0.362 | 0.484 | 0.416 | 0.942 | 1.02 | 0.985 | 0.965 | 0.939 | 0.708
7 | NCI-H1734 | 0.523 | 0.477 | 0.436 | 0.466 | 0.446 | 0.954 | 0.908 | 0.882 | 0.455 | 0.446 | 0.428 | 0.517 | 0.435 | 0.902 | 0.989 | 0.867 | 0.913 | 0.827 | 0.683
8 | NCI-H1993 | 0.471 | 0.561 | 0.502 | 0.519 | 0.505 | 0.778 | 0.737 | 0.695 | 0.478 | 0.619 | 0.716 | 0.532 | 0.485 | 0.669 | 0.698 | 0.742 | 0.703 | 0.629 | 0.801
9 | RERF-LC-KJ | 0.873 | 0.77 | 0.771 | 0.623 | 0.511 | 0.623 | 0.584 | 0.57 | 0.49 | 0.499 | 0.51 | 0.486 | 0.466 | 0.933 | 0.875 | 0.854 | 0.839 | 0.795 | 0.545
10 | HARA | 0.304 | 0.282 | 0.235 | 0.234 | 0.195 | 0.397 | 0.403 | 0.285 | 0.212 | 0.248 | 0.222 | 0.203 | 0.25 | 0.915 | 0.8 | 0.876 | 0.969 | 0.857 | 0.363
11 | NCI-H838 | 0.317 | 0.342 | 0.299 | 0.329 | 0.27 | 0.86 | 0.842 | 0.78 | 0.275 | 0.254 | 0.255 | 0.299 | 0.29 | 1.09 | 0.982 | 1.02 | 1.08 | 1.31 | 0.645
12 | NCI-H1666 | 0.771 | 0.871 | 0.854 | 0.848 | 0.874 | 0.303 | 0.608 | 0.428 | 0.888 | 0.831 | 0.88 | 0.991 | 0.963 | 0.864 | 0.815 | 0.805 | 0.818 | 0.989 | 0.554
13 | NCI-H322M | 0.272 | 0.256 | 0.268 | 0.279 | 0.246 | 0.467 | 0.592 | 0.551 | 0.61 | 0.628 | 0.596 | 0.666 | 0.652 | 0.8 | 0.902 | 0.894 | 0.877 | 0.839 | 0.581
14 | LCLC-97TM1 | 0.901 | 0.988 | 0.811 | 0.819 | 0.915 | 0.827 | 0.553 | 0.687 | 0.176 | 0.175 | 0.192 | 0.203 | 0.254 | 0.181 | – | – | 0.205 | 0.167 | –
15 | EPLC-272H | 0.363 | 0.353 | 0.316 | 0.299 | 0.177 | 0.809 | 1.01 | 0.814 | 0.47 | 0.269 | 0.306 | 0.241 | 0.142 | 1.06 | 1.25 | 0.92 | 0.855 | 0.712 | –
16 | NCI-H2023 | 0.585 | 0.571 | 0.552 | 0.518 | 0.505 | 0.441 | 0.409 | 0.435 | 0.22 | 0.23 | 0.292 | 0.285 | 0.212 | 0.659 | 0.619 | 0.594 | 0.65 | 0.587 | 0.407
17 | NCI-H460 | 0.601 | 0.644 | 0.57 | 0.459 | 0.498 | 0.313 | 0.283 | 0.276 | 0.0658 | 0.062 | 0.0697 | 0.0606 | 0.0547 | 0.845 | 0.84 | 0.857 | 0.849 | 0.942 | 0.326

— the supplement of paper PMC10307832
